Measurements from patent publication US9958439B2, “Carbohydrate detection” (RICHTER LIFE SCIENCE DEVELOPMENT AB, priority 2012, dated 2018).
Like-named read-outs stand apart in the source and are kept apart here.

Experiments:
[1] = for RFU change (Correlation analysis) / RFU change (Signal deviation with increasing [Carbohydrate]) / λmax change: 3 μM probe; for RFU change (Correlation analysis): probe-specific excitation λ, emission 545 nm; for RFU change (Signal deviation with increasing [Carbohydrate]) / λmax change: spectral analysis, Excitation 300-500, Emission 545
Outline: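 LCO probes at 3 μM mixed with serial twofold carbohydrate dilutions in dH2O (10–0.039 or 5–0.019 mg/ml, depending on carbohydrate). Excitation scanned 300–500 nm, emission read at 545 nm; detection defined as reproducible shift in λmax and/or RFU relative to negative control, with linear regression of RFU against concentration.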

[2] = for RFU change (Correlation analysis): probe-specific excitation λ, emission 545 nm
Outline: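 LCO probes at 3 μM mixed with serial two-fold dilutions of carbohydrate in dH2O (10–0.039 or 5–0.019 mg/ml, depending on carbohydrate), in triplicate. Excitation scanned 300–500 nm or fixed per probe (λmax or lowest background), emission at 545 nm. Detection taken as reproducible λmax/RFU shift vs no-carbohydrate control; RFU regressed linearly on concentration.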

[3] = Outline: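 LCO probes at 3 μM mixed with serial two-fold carbohydrate dilutions in water (10–0.039 or 5–0.019 mg/ml), run in triplicate. Excitation scanned 300–500 nm with emission at 545 nm; detection based on reproducible λmax or RFU shift against the no-carbohydrate control, with linear regression of RFU on concentration.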
[4] = remark: listed apart in the source
Outline: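 LCO probes (3 μM) were added to serial two-fold dilutions of carbohydrate suspensions in dH2O, with excitation scanned 300–500 nm and emission at 545 nm. Detection was a reproducible λmax and/or RFU change versus no-carbohydrate control. RFU was regressed linearly against concentration at the λmax or the lowest-background excitation.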

[5] = for RFU change (Correlation analysis) / RFU change (Signal deviation with increasing [Carbohydrate]) / λmax change: 3 μM probe; for RFU change (Correlation analysis): probe-specific excitation λ, emission 545 nm; for RFU change (Signal deviation with increasing [Carbohydrate]) / λmax change: spectral analysis, Excitation 300-500, Emission 545; for carbohydrate can be detected and/or differentiated by the LCO: conclusion from change in signal magnitude and/or shift in λmax; for Gradient Parameters (gradient of regression line) / Linear relationship / Quality of Gradient: linear regression
Outline: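 Each LCO probe at 3 μM was added to two-fold serial dilutions of carbohydrate in dH2O (10–0.039 mg/ml for β-1,3-glucan, cellulose, chitin; 5–0.019 mg/ml for the others), run in triplicate. Excitation spectra were scanned 300–500 nm with emission at 545 nm. Detection was a reproducible λmax and/or RFU shift versus negative control, with linear regression of RFU against concentration.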

[6] = remark: listed apart in the source
Outline: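 3 μM of each LCO probe was added to serial two-fold carbohydrate dilutions in water (10–0.039 or 5–0.019 mg/ml). Excitation spectra were scanned 300–500 nm with emission at 545 nm, in triplicate. Detection was defined as a reproducible shift in λmax and/or RFU versus negative control, with linear regression of RFU against concentration.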

[7] = glycogen concentration vs RFU, linear regression
[8] = heparin concentration vs RFU, linear regression
[9] = Cellulobiose 5-0.019 mg/ml, 3 μM probe, spectral analysis, Excitation 300-500, Emission 545
[10] = amylose concentration vs RFU, linear regression
[11] = cellulobiose concentration vs RFU, linear regression
[12] = glucose concentration vs RFU, linear regression
[13] = Sodium alginate 5-0.019 mg/ml, 3 μM probe, spectral analysis, Excitation 300-500, Emission 545
[14] = sodium alginate concentration vs RFU, linear regression
[15] = β-1,3-glucan concentration vs RFU
[16] = Chondroitin Sulfate A 5-0.019 mg/ml, 3 μM probe, spectral analysis, Excitation 300-500, Emission 545
[17] = Chondroitin Sulfate A concentration vs RFU, linear regression

With `Cl.Cl.NCCc1cc(-c2cccs2)sc1-c1ccc(-c2sc(-c3cccs3)cc2CCN)s1` [pHTEA, penta Hydrogen Thiophene Ethanol Amine] the “RFU change (Correlation analysis)” value ([1]; Glycogen 5-0.019 mg/ml) was “Decreases”, the “RFU change (Signal deviation with increasing [Carbohydrate])” value ([1]; Glycogen 5-0.019 mg/ml) was “Decreases” and the λmax change ([1]; Glycogen 5-0.019 mg/ml) was “Redshift”. For the same molecule, the “carbohydrate can be detected and/or differentiated by the LCO” value ([1]; Glycogen, conclusion from change in signal magnitude and/or shift in λmax) was “can be detected and/or differentiated”, the “RFU change (Correlation analysis)” value ([1]; Heparin 5-0.019 mg/ml) was “Unclear” and the “RFU change (Signal deviation with increasing [Carbohydrate])” value ([1]; Heparin 5-0.019 mg/ml) was “Decreases”. The λmax change ([1]; Heparin 5-0.019 mg/ml) was “Redshift”, the “Gradient Parameters (gradient of regression line)” value (“Gradient Parameters” for short) [1, 7] was −451 ± 328 and the “Quality of Gradient” value [1, 7] was “Negative”. The “Gradient Parameters” value [1, 8] was −109.3 ± 248, the Linear relationship [1, 8] was “Not Significant” and the “Quality of Gradient” value [1, 8] was “Horizontal”. The Sensitivity ([1]; to glycogen) was “Yes”, the Sensitivity ([1]; to heparin) was “No” and the “RFU change (Correlation analysis)” value ([2]; Amylose 5-0.019 mg/ml, 3 μM probe) was “Decreases”. For the same molecule, the “RFU change (Signal deviation with increasing [Carbohydrate])” value ([2]; Amylose 5-0.019 mg/ml, 3 μM probe, spectral analysis, Excitation 300-500, Emission 545) was “Decreases”, the “carbohydrate can be detected and/or differentiated by the LCO” value ([2]; Amylose, conclusion from change in signal magnitude and/or shift in λmax) was “can be detected and/or differentiated” and the “RFU change (Correlation analysis)” value ([2]; Cellulobiose 5-0.019 mg/ml, 3 μM probe) was “Unclear”. The “RFU change (Signal deviation with increasing [Carbohydrate])” value [2, 9] was “Unclear”, the λmax change [2, 9] was “No change” and the “Gradient Parameters” value [2, 10] was −6680 ± 1421. The Linear relationship [2, 10] was “Significant”, the “Quality of Gradient” value [2, 10] was “Negative” and the “Gradient Parameters” value [2, 11] was 39.5 ± 66.5. The “Quality of Gradient” value [2, 11] was “Horizontal”, the Sensitivity ([2]; to amylose) was “Yes” and the Sensitivity ([2]; to cellulobiose) was “No”. The “RFU change (Correlation analysis)” value ([3]; Glucose 5-0.019 mg/ml, 3 μM probe, probe-specific excitation λ, emission 545 nm) was “Unclear”, the “RFU change (Signal deviation with increasing [Carbohydrate])” value ([3]; Glucose 5-0.019 mg/ml, 3 μM probe, spectral analysis, Excitation 300-500, Emission 545) was “Increases” and the “Gradient Parameters” value [3, 12] was −67.4 ± 37.2. The “Quality of Gradient” value [3, 12] was “Horizontal”, the Sensitivity ([3]; to glucose) was “No” and the “RFU change (Correlation analysis)” value ([4]; Sodium alginate 5-0.019 mg/ml, 3 μM probe, probe-specific excitation λ, emission 545 nm) was “Increases”. For the same molecule, the “RFU change (Signal deviation with increasing [Carbohydrate])” value [4, 13] was “Increases”, the λmax change [4, 13] was “Redshift” and the “carbohydrate can be detected and/or differentiated by the LCO” value ([4]; Sodium alginate, conclusion from change in signal magnitude and/or shift in λmax) was “can be detected and/or differentiated”. The “Gradient Parameters” value [4, 14] was 832.4 ± 174.5, the Linear relationship [4, 14] was “Significant” and the “Quality of Gradient” value [4, 14] was “Positive”. For the same molecule, the Sensitivity ([4]; to sodium alginate) was “Yes”, the “RFU change (Correlation analysis)” value ([5]; Cellulose 10-[…]) was “Increase” and the “RFU change (Signal deviation with increasing [Carbohydrate])” value ([5]; Cellulose 10-[…]) was “Increase”. The λmax change ([5]; Cellulose 10-[…]) was “Redshift”, the “carbohydrate can be detected and/or differentiated by the LCO” value ([5]; Cellulose) was “can be detected and/or differentiated” and the “RFU change (Correlation analysis)” value ([5]; Chitin 10-[…]) was “Decreases”. The “RFU change (Signal deviation with increasing [Carbohydrate])” value ([5]; Chitin 10-[…]) was “Decrease”, the λmax change ([5]; Chitin 10-[…]) was “Redshift” and the “carbohydrate can be detected and/or differentiated by the LCO” value ([5]; Chitin) was “can be detected and/or differentiated”. For the same molecule, the “Gradient Parameters” value ([5]; cellulose concentration vs RFU) was 6001 ± 1187, the Linear relationship ([5]; cellulose concentration vs RFU) was “Significant” and the “Quality of Gradient” value ([5]; cellulose concentration vs RFU) was “Positive”. For the same molecule, the “Gradient Parameters” value ([5]; chitin concentration vs RFU) was −9030 ± 110.1, the Linear relationship ([5]; chitin concentration vs RFU) was “Significant” and the “Quality of Gradient” value ([5]; chitin concentration vs RFU) was “Negative”. The Sensitivity ([5]; to cellulose) was “Yes”, the Sensitivity ([5]; to chitin) was “Yes” and the Sensitivity ([5]; to β-1,3-glucan) was “Yes”. The “carbohydrate can be detected and/or differentiated by the LCO” value ([5]; β-1,3-Glucan) was “can be detected and/or differentiated”, the “RFU change (Correlation analysis)” value ([5]; β-1,3-glucan 10-[…]) was “Decrease” and the “RFU change (Signal deviation with increasing [Carbohydrate])” value ([5]; β-1,3-glucan 10-[…]) was “Decrease”. The λmax change ([5]; β-1,3-glucan 10-[…]) was “Redshift”, the “Gradient Parameters” value [5, 15] was −664.6 ± 206.2 and the “Quality of Gradient” value [5, 15] was “Negative”. For the same molecule, the “RFU change (Correlation analysis)” value ([6]; Chondroitin Sulfate A 5-0.019 mg/ml, 3 μM probe, probe-specific excitation λ, emission 545 nm) was “Increases”, the “RFU change (Signal deviation with increasing [Carbohydrate])” value [6, 16] was “Increases” and the λmax change [6, 16] was “Redshift”. The “Gradient Parameters” value [6, 17] was 5989 ± 727, the Linear relationship [6, 17] was “Significant” and the “Quality of Gradient” value [6, 17] was “Positive”. The “carbohydrate can be detected and/or differentiated by the LCO” value ([6]; Chondroitin sulfate A, conclusion from change in signal magnitude and/or shift in λmax) was “can be detected and/or differentiated” and the Sensitivity ([6]; to Chondroitin Sulfate A) was “Yes”.
